Measured values published in US6756382B2, “Amide substituted imidazoquinolines” (3M Innovative Properties Company, priority 1999, dated 2004).
Counter-ions that a name gives are not always drawn.

Assays:
interferon (α) = assay: Cytokine induction in human cells: interferon secreted by PBMCs, ELISA; type: cell-based; settings: PBMC, incubated 18 to 24 hours, interferon determined by ELISA, read-out: Lowest Effective Concentration (μM) Interferon
From the text: (§1) An in vitro human blood cell system was used to assess cytokine induction by compounds of the invention. Activity is based on the measurement of interferon and tumor necrosis factor (α) (IFN and TNF, respectively) secreted into culture media as described by Testerman et. al. In “Cytokine Induction by the Immunomodulators Imiquimod and S-27609”, Journal of Leukocyte Biology, 58, 365-372 (September, 1995).
(§2) Whole blood is collected by venipuncture into EDTA vacutainer tubes from healthy human donors. Peripheral blood mononuclear cells (PBMCs) are separated from whole blood by density gradient centrifugation using Histopaque®-1077 (Sigma Chemicals, St. Louis, Mo.). The PBMCs are suspended at 3-4×10^6 cells/mL in RPMI 1640 medium containing 10% fetal bovine serum, 2 mM L-glutamine and 1% penicillin/streptomycin solution (RPMI complete). The PBMC suspension is added to 48 well flat bottom sterile tissue culture plates (Costar, Cambridge, Mass. or Becton Dickinson Labware, Lincoln Park, N.J.) containing an equal volume of RPMI complete media containing test compound.
(§3) The compounds are solubilized in dimethyl sulfoxide (DMSO). The DMSO concentration should not exceed a final concentration of 1% for addition to the culture wells.
(§4) The solution of test compound is added at 60 μM to the first well containing RPMI complete and serial (three fold or ten fold) dilutions are made. The PBMC suspension is then added to the wells in an equal volume, bringing the test compound concentrations to the desired range. The final concentration of PBMC suspension is 1.5-2×10^6 cells/mL. The plates are covered with sterile plastic lids, mixed gently and then incubated for 18 to 24 hours at 37° C. in a 5% carbon dioxide atmosphere.
(§5) Following incubation the plates are centrifuged for 5-10 minutes at 1000 rpm (˜200×g) at 4° C. The cell culture supernatant is removed with a sterile polypropylene pipet and transferred to sterile polypropylene tubes. Samples are maintained at −30 to −70° C. until analysis. The samples are analyzed for interferon (α) by either ELISA or bioassay and for tumor necrosis factor (α) by ELISA.
Interferon (α) concentration is determined by ELISA using a Human Multi-Species kit from PBL Biomedical Laboratories, New Brunswick, N.J.
(§6) The table below lists the lowest concentration found to induce interferon and the lowest concentration found to induce tumor necrosis factor for each compound. […] Unless otherwise indicated, the interferon biosynthesis was determined by ELISA.

[1] = tested on: tumor necrosis factor (α); assay: Cytokine induction in human cells: tumor necrosis factor (α) secreted by PBMCs, ELISA; type: cell-based; settings: PBMC, incubated 18 to 24 hours, TNF determined by ELISA, read-out: Lowest Effective Concentration (μM) Tumor Necrosis Factor
From the text: as §1, §2, §3, §4, §5
Tumor necrosis factor (α) (TNF)concentration is determined using ELISA kits available from Genzyme, Cambridge, Mass.; R&D Systems, Minneapolis, Minn.; or Pharmingen, San Diego, Calif.
as §6

SMILES | minimal effective concentration (interferon (α)) [µM] | minimal effective concentration [1] [µM]
C=CCCCCCCCCC(=O)NCCCCn1cnc2c(N)nc3ccccc3c21 [Example 92] | 3.33 | > 30
CCc1nc2c(N)nc3ccccc3c2n1CCCCNC(=O)c1ccccc1 [Example 5, N^1-[4-(4-Amino-2-ethyl-1H-imidazo[4,5-c]quinolin-1-yl)butyl]benzamide] | 0.04 | 0.37
COCCc1nc2c(N)nc3c(c2n1CCCCNC(=O)c1ccccc1)CCCC3 [Example 172] | 0.0001 | 1
Nc1nc2ccccc2c2c1ncn2CCCCNC(=O)c1cccc(Br)c1 [Example 89] | 1.11 | 10
Nc1nc2ccccc2c2c1ncn2CCCCNC(=O)c1ccc(OC(F)(F)F)cc1 [Example 102] | 3.33 | > 30
COc1cccc(CN(CCCCn2cnc3c(N)nc4ccccc4c32)C(C)=O)c1OC [Example 131] | 3.33 | > 30
COc1ccc(CN(CCCCn2cnc3c(N)nc4ccccc4c32)C(C)=O)c(OC)c1OC [Example 145] | 1.11 | > 30
CC(=O)N(CCCCn1cnc2c(N)nc3ccccc3c21)Cc1cc(Cl)ccc1[N+](=O)[O-] [Example 126] | 3.33 | > 30
CC(=O)N(CCCCn1cnc2c(N)nc3ccccc3c21)Cc1cc(Cl)cc(Cl)c1 [Example 128] | 3.33 | 1.11
CC(=O)N(CCCCn1cnc2c(N)nc3ccccc3c21)Cc1ccc(C)cc1C [Example 132] | 1.11 | 3.33
COc1cc(CN(CCCCn2cnc3c(N)nc4ccccc4c32)C(C)=O)cc(OC)c1OC [Example 146] | 3.33 | > 30
COCCc1nc2c(N)nc3ccccc3c2n1CCCCNC(=O)CCCCCCC(=O)OC [Example 159] | 0.01 | 1
COCCc1nc2c(N)nc3ccccc3c2n1CCCCNC(=O)[C@@H]1C[C@H]1c1ccccc1 [Example 153] | 0.0001 | 0.1
COCCc1nc2c(N)nc3ccccc3c2n1CCCCNC(=O)C1CCCC1 [Example 149] | 0.001 | 1
Nc1nc2ccccc2c2c1ncn2CCCCNC(=O)C1(c2ccc(Cl)cc2)CCCC1 [Example 91] | 3.33 | > 30
CCCCCCCCN(CCCCn1cnc2c(N)nc3ccccc3c21)C(C)=O [Example 137] | 10 | > 30
Nc1nc2ccccc2c2c1ncn2CCCCCNC(=O)c1ccccc1 [Example 10, N^1-[5-(4-Amino-1H-imidazo[4,5-c]quinolin-1-yl)pentyl]benzamide Hydrochloride] | 3.33 | > 30
COCCc1nc2c(N)nc3ccccc3c2n1CCCCNC(=O)c1ccc(OC)c(OC)c1 [Example 158] | 0.001 | 1
Nc1nc2ccccc2c2c1ncn2CCCCNC(=O)c1ccc(CN2CCOCC2)cc1 [Example 103] | 0.37 | 10

SMILES | minimal effective concentration (interferon (α)) [µM] | minimal effective concentration [1] [µM]
CC(=O)N(CCCCn1cnc2c(N)nc3ccccc3c21)Cc1ccc(Br)cc1 [Example 121] | 1.11 | > 30
COCCc1nc2c(N)nc3ccccc3c2n1CCCCNC(=O)C1CCCCC1 [Example 150] | 0.001 | 0.1
CC(=O)N(CCCCn1cnc2c(N)nc3ccccc3c21)Cc1ccc(F)c(F)c1 [Example 129] | 3.33 | > 30
Nc1nc2ccccc2c2c1ncn2CCCNC(=O)c1ccccc1 [Example 11, N^1-[3-(4-Amino-1H-imidazo[4,5-c]quinolin-1-yl)propyl]benzamide Hydrochloride] | 1.11 | > 30
COC(=O)CCCCC(=O)NCCCCn1cnc2c(N)nc3ccccc3c21 [Example 95] | 3.33 | 30
Nc1nc2ccccc2c2c1ncn2CCCCNC(=O)c1ccc([N+](=O)[O-])o1 [Example 96] | 0.37 | 10
COc1ccc(OC)c(CN(CCCCn2cnc3c(N)nc4ccccc4c32)C(C)=O)c1 [Example 130] | 1.11 | 10
COCCc1nc2c(N)nc3ccccc3c2n1CCCCNC(=O)C1CCCN1S(=O)(=O)c1ccc(C(C)(C)C)cc1 (stereo in doubt) [Example 185, N-{4-[4-amino-2-(2-methoxyethyl)-1H-imidazo[4,5-c]quinolin-1-yl]butyl}-1-[(4-tert-butylphenyl)sulfonyl]-L-prolinamide] | 1.11 | 3.33
Nc1nc2ccccc2c2c1ncn2CCCCNC(=O)c1ccc(CNCc2ccncc2)cc1 [Example 105] | 0.12 | 10
Nc1nc2ccccc2c2c1ncn2CCCCCCCCNC(=O)c1ccccc1 [Example 191, N-[8-(4-amino-1H-imidazo[4,5-c]quinolin-1-yl)octyl]benzamide] | > 30 | > 30
COCCc1nc2c(N)nc3c(c2n1CCCCNC(=O)c1ccncc1)CCCC3 [Example 173] | 0.001 | 1
Cc1nc2c(N)nc3ccccc3c2n1CCCCNC(=O)c1ccccc1 [Example 4, N^1-[4-(4-Amino-2-methyl-1H-imidazo[4,5-c]quinolin-1-yl)butyl]benzamide] | 0.04 | 0.37
CC(=O)N(CCCCn1cnc2c(N)nc3ccccc3c21)Cc1ccccc1Sc1ccc(Cl)cc1 [Example 127] | > 30 | > 30
CCc1ccc(CN(CCCCn2cnc3c(N)nc4ccccc4c32)C(C)=O)o1 [Example 133] | 3.33 | > 30
Nc1nc2ccccc2c2c1ncn2CCCCNC(=O)c1cccs1 [Example 86] | 1.11 | 10
COC(=O)CCCCCCCCC(=O)NCCCCn1cnc2c(N)nc3ccccc3c21 [Example 101] | 3.33 | > 30
CC(=O)N(CCCCn1cnc2c(N)nc3ccccc3c21)Cc1ccccc1C [Example 144] | 1.11 | > 30
CCCCc1nc2c(N)nc3ccccc3c2n1CCCNC(=O)c1cc2ccccc2cn1 [Example 188, N-[3-(4-amino-2-butyl-1H-imidazo[4,5-c]quinolin-1-yl)propyl]isoquinoline-3-carboxamide] | 0.37 | 1.11
CCCCc1nc2c(N)nc3ccccc3c2n1CCCCNC(=O)c1ccccc1 [Example 6, N^1-[4-(4-Amino-2-butyl-1H-imidazo[4,5-c]quinolin-1-yl)butyl]benzamide] | 0.12 | 1.11
